Measurements as given in patent US20040152684A1, “Use of antigestagens for inhibiting accelerated endometrial maturation during infertility treatment” (priority 2001, published 2004).

Tested on: endometrium of the superovulated pseudopregnant rabbit
Assay: Endometrial receptivity in the superovulated pseudopregnant rabbit model
Format: in vivo, New Zealand White rabbits
Settings: for endometrial maturation (in words): compared with Group 1 controls not subject to ovarian hyperstimulation; for Mc-Phail [x ± SD] (endometrial transformation index, 1 no to 4 high transformation) / Uterine wet weight [x ± SD]: measured at d5 p.hCG; for Uteroglobin ISH [expression in luminal epithelial cells]: uteroglobin mRNA at d5 p.hCG
Procedure: The effects of a 17α-fluoralkylated progesterone receptor antagonist on endometrial activity was evaluated in the superovulated pseudopregnant rabbit model. The pseudopregnancy of the rabbit has proven to be a model system for the human luteal phase (Beier and Kuhnel, 1973, Hormone Res. 4:1-27; Fischer et al., 1985, Fertilitat 1:101-109. In this species, ovarian stimulation induces an advancement of secretory transformation (Delbos-Winter et al., 1987, Fertilitat 3: 87-93) as well as an enhancement of gland formation.
A total of 25 sexually mature nulliparous New Zealand White rabbits with a body weight of 3.1 to 4.0 kg were used for the analysis. The animals were divided into two control groups (groups 1 and 2) and three treatment groups (groups 3-5), with five animals in each group.
Control group 1 received 75 international units (IU) of human chorionic gonadotropin (hCG) administered intravenously in order to induce pseudopregnancy. The day of hCG-injection was designated as day 0 of pseudopregnancy (d0 p.hCG).
Control group 2 and treatment groups 3, 4, and 5 were gonadotropin-stimulated with 5 IU of the human menopausal gonadotropin (HMG) Pergonal® (Serono Pharma, Unterschleipheim, Germany) for 3 days, by subcutaneous injection, in order to induce multiple follicular growth. Pseudopregnancy was induced by the administration of human chorionic gonadotropin (hCG) as described for control group 1 above.
Treatment groups 3, 4 and 5 also received a single per oral application of a 17α-fluoralkylated progesterone receptor antagonist (Compound A) two days after pseudopregnancy induction with the administration of human chorionic gonadotropin (d2 p.hCG).
Animals in all treatment groups were sacrificed on day 5 following pseudopregnancy induction (d5 p.hCG), and uteri were removed. Relative uterine wet weights were determined (in mg/100 g body weight) and a part of the uterus was snap frozen in liquid nitrogen for determination of uteroglobin expression by in situ hybridization. Uteroglobin expression is known as a highly sensitive parameter for determination of endometrial receptivity (Beier, H. M., 1968, Biochem Biophys. Acta. 160:289-291; Beier, H. M., 1982, in: Beier, H. M. and Karlson, P. (eds.), Proteins and Steroids in Early Pregnancy), and is a marker for secretory activity (Beier, 1976, J. Reprod. Fertil. Suppl. 25:53-69) and differentiation of the endometrial epithelium (Krusche & Beier, 1994, Ann. Anat. 176:23-31). In situ hybridization for detection of uteroglobin expression was conducted as previously described in Krusche & Beier, above. Another piece of the uterus was removed and processed for paraffin histology in order to determine the endometrial transformation status using the McPhail-Index (McPhail M k, 1934, J. Phys. 83:145-156) The McPhail Index reflects different degrees of progestogenic (transforming) activity in the rabbit endometrium:
3. pronounced transformation

[1] = Group 3: HMG + hCG, single per oral 0.1 mg/kg on d2 p.hCG
[2] = Group 4: HMG + hCG, single per oral 1 mg/kg on d2 p.hCG
[3] = Group 5: HMG + hCG, single per oral 10 mg/kg on d2 p.hCG

## CC(=O)c1ccc([C@H]2C[C@@]3(C)[C@@H](CC[C@@]3(O)C(F)(F)C(F)(F)F)[C@@H]3CCC4=CC(=O)CCC4=C32)cc1 [Compound A, 11β-(4-acetylphenyl)-17β-hydroxy-17α-(1,1,2,2,2-pentafluoroethyl)estra-4,9-dien-3-one]
0.1 mg/kg (Group 3)
  endometrial maturation (in words): roughly corresponded with that of control animals which were not subject to ovarian hyperstimulation
1 mg/kg (group 4)
  endometrial maturation (in words): delayed the timing of maturation beyond that observed in animals which were not subject to hyperovarian stimulation
10 mg/kg (group 5)
  endometrial maturation (in words): delayed the timing of maturation beyond that observed in animals which were not subject to hyperovarian stimulation
[1]
  Mc-Phail [x ± SD] (endometrial transformation index, 1 no to 4 high transformation): 3.0 ± 0.1
  Uterine wet weight [x ± SD]: 305 ± 48 mg/kg
  Uteroglobin ISH [expression in luminal epithelial cells]: very high
[2]
  Mc-Phail [x ± SD] (endometrial transformation index, 1 no to 4 high transformation): 1.5 ± 0.3
  Uterine wet weight [x ± SD]: 227 ± 56 mg/kg
  Uteroglobin ISH [expression in luminal epithelial cells]: very low
[3]
  Mc-Phail [x ± SD] (endometrial transformation index, 1 no to 4 high transformation): 1.1 ± 0.3
  Uterine wet weight [x ± SD]: 144 ± 30 mg/kg
  Uteroglobin ISH [expression in luminal epithelial cells]: absent
